Reference: patent US12616646B2, “Use of rochelle salt” (SKYLAB AG, priority 2021, dated 2026)

How the values were obtained:
[1] = concentration of 0.01%; vegetable oils subjected to heating; cited from earlier work
[2] = Antioxidant activity in relation to ascorbic acid by the ferricyanide spectrophotometric method; conditions: 2% solution in distilled water
Description: Materials and methods. The test item was 2% seignette salt solution in distilled water.

[3] = FtCl (Ft Cleaning) 300 cleaning and whitening ability test on Martindale tester, Example 1; conditions: Δ by 4 cycles values
Description: To determine resistance of dental enamel to attrition on a Martindale tester (hereinafter—Tester) the sets were analyzed—samples of solutions of piezoelectric materials and tooth brushes based on the following indicator: • FtCl (Ft Cleaning) 300, characterizes the cleaning ability of a solution (paste) by making 300 cleaning movements (mah) in a suspension of piezoelectric materials. The indicator is used as an analog of PCR (Pellicle Cleaning Ration) and it enables quantitative assessment of the cleaning and whitening action of a solution (paste) in case of a single-time cleaning. […]
Determination of FtCl300 for a solution of piezoelectric materials: • path: ∞L=25 mm, • rate 150 mah/min, • impact—300 mah, • brush load 325 g, • minimum quantity of parallel determinations—one per each paste with a test brush, • a test tooth brush: tooth brush PROFESSIONAL COMPLETE of medium hardness, • use one brush head for not more than 3-4 cycles, i.e. for 900-1200 mah, owing to wear out of bristles; then replace the brush head with a new one. […]
FtCl300 values were calculated by the formula: FtCl300=100*(Lcl−Lcol)/(Lin−Lcol) Preparation of Solutions: • 1. […]
Test results. […] In this model any color is determined with lightness (L-Lightness) and two chromatic components: channel a—colors from dark green through gray to purple, channel b—colors from blue through gray to yellow. […]

SMILES	antioxidant effect [1]	Antioxidant activity (AOA) [2] [mol-eq/l]	Antioxidant activity, AOA in relation to vitamin C (higher than vitamin C) [2] [%]	difference in FtCl300 to barium titanate [3]
O=C([O-])C(O)C(O)C(=O)[O-].[Na+].[Na+] (stereo not shown) [sodium tartrate]	marked antioxidant effect			
O.O.O.O.O=C([O-])C(O)C(O)C(=O)[O-].[K+].[Na+] (stereo not shown) [seignette salt, potassium sodium tartrate KNaC4H4O6·4H2O]		0.00013	13.7	0.19
